According to patent US20140242707A1, “Compositions and Methods for Diagnosing Hypercoagulability and Hypocoagulability” (Philadelphia Health & Education Corporation d/b/a Drexel …, priority 2011, published 2014):

Legend:
[1] = tested on: Pooled normal plasma; experiment: Thrombelastography of tissue factor-activated pooled normal plasma (Example 1); type: biochemical, human
Procedure: Pooled normal plasma (George King Bio-Medical, Overland Park, Kans., USA) anticoagulated with sodium citrate was utilized for experimentation. The lot of plasma used for all experimentation was #1853, with a prothrombin time of 12.3 sec, an activated partial thromboplastin time of 29.3 sec, and a fibrinogen concentration >250 mg/dl. The final volume for all subsequently described plasma sample mixtures was 359.2 μl. Sample composition consisted of 322 μl of plasma; 10 μl of tissue factor reagent (0.1% final concentration in dH2O; Instrumentation Laboratory, Lexington, Mass., USA), 3.6 μl of dH2O or dH2O containing the organic reductant phenylhydroxylamine (PHA, 0-30 mM final concentration, Sigma-Aldrich, Saint Louis, Mo., USA), 3.6 μl of dimethyl sulfoxide (DMSO) or DMSO with CORM-2 (0-400 μM final concentration; Sigma-Aldrich) and 20 μl of 200 mM CaCl2. PHA was chosen as the agent to convert fibrinogen-associated, heme-bound Fe^+2 to an Fe^+3 state (1978, Castro et al., Biochemistry 17:225-231; 1986, Harrison and Jollow, J Pharmacol Exp Ther 238:1045-1054; 1987, Harrison and Jollow, Mol Pharmacol 32:423-431; 1999, Ciccoli et al., Toxicol Lett 110:57-66). Stock solutions of CORM-2 were made just before each experiment. Tissue factor stock solution was kept on ice prior to use and was remade every two hours.
Plasma sample mixtures were placed in a disposable cup in a computer-controlled thrombelastograph hemostasis system (Model 5000, Haemoscope Corp., Niles, Ill., USA), with addition of CaCl2 as the last step to initiate clotting. Data were collected for 15 min at 37° C. Given that final clot strength is the sine quo non of fibrinogen concentration in plasma (2005, Nielsen et al., Acta Anaesthesiol Scand 49:222-231), and that elastic modulus (G, dyne/cm^2) is a measure of strength that can be determined by all commercially available thrombelastographs/thromboelastometers, G values were subsequently recorded for all samples.
Additional elastic modulus-based parameters previously described were determined for some of the experiments (2009, Nielsen et al., Fibrinolysis 20: 377-380; Nielsen et al., in press, Fibrinolysis; 2005, Nielsen et al., Acta Anaesthesiol Scand 49: 222-231; 2009, Nielsen et al., Blood Coagul Fibrinolysis 20: 448-455). The nomenclature used to describe these phenomena is as follows:
Time to maximum rate of thrombus generation (TMRTG): This is the time interval (min) observed prior to maximum speed of clot growth.
Maximum rate of thrombus generation (MRTG): This is the maximum velocity of clot growth observed (dynes/cm^2/sec).
Total Thrombus Generation (TTG): This is the total area under the velocity curve during clot growth (dynes/cm^2), representing the amount of clot strength generated during clot growth.
Thrombelastographic data are presented as mean±SD. Analyses of the effects of PHA before and after CORM-2 addition to plasma were conducted with one way analysis of variance with Holm-Sidak post hoc test (SigmaStat 3.1, Systat Software, Inc., San Jose, Calif., USA). Comparison between plasma exposed to 10 or 30 mM PHA was performed with an unpaired Student's t-test. The plasmatic strength response to increasing concentrations of CORM-2 was analyzed with one way analysis of variance with Holm-Sidakpost hoc test. Graphical representation of the data was generated with commercially available software (Origin 7.5, OriginLab Corp., Northampton, Mass., USA). A P value of <0.05 was considered significant.

[2] = tested on: Patient plasma; pooled normal plasma; experiment: Thrombelastography of Heartmate II VAD patient plasma and pooled normal plasma; type: biochemical, human; settings: for change in clot strength (TTG) compared to normal plasma: VAD patient plasma, 100 μM CORM-2 or 30 mM PHA
Procedure: Shortly after induction of anesthesia and invasive monitoring placement, whole blood was collected from the patient's radial arterial catheter and immediately anticoagulated with sodium citrate (9 parts blood:1 part 0.105M sodium citrate). The blood was immediately centrifuged at 3000×g at room temperature, with plasma aliquoted and stored at −80° C. prior to thrombelastographic analyses subsequently described. Operation proceeded, with VAD replacement followed by discharge from the hospital three weeks later.
Patient plasma was subjected to thrombelastographic analysis for 30 min at 37° C. as previously described (Nielsen et al., 2009, Blood Coagul Fibrinolysis, 20: 377-380; Nielsen et al., 2011, Blood Coagul Fibrinolysis, 22: 657-661). Also, for qualitative/semi-quantitative comparison, four replicate samples of citrated, pooled normal plasma (George King Bio-Medical, Overland Park, Kans., USA) were subjected to identical thrombelastographic analyses. In brief, the final volume for all subsequently described plasma sample mixtures was 359.6 Sample composition consisted of 326 μl of plasma; 10 μl of tissue factor reagent (0.1% final concentration in dH2O; Diagnostica Stago S.A.S., Asnieres sur Seine, France), 3.6 μl of dH2O or dH2O containing the organic reductant phenylhydroxylamine (PHA, 30 mM final concentration, Sigma-Aldrich, Saint Louis, Mo., USA), or 3.6 μl of CORM-2 (100 μM final concentration; Sigma-Aldrich) and 20 μl of 200 mM CaCl2. The addition of CORM-2 determines if there are heme groups unbound by CO in plasma by increasing coagulation kinetics (Nielsen et al., 2011, Blood Coagul Fibrinolysis, 22: 657-661). PHA at this concentration rapidly converts heme-attached Fe^+2 to Fe^+3, the met-state, displacing CO and decreasing coagulation (Nielsen et al., 2011, Blood Coagul Fibrinolysis, 22: 657-661). […] Thrombelastographic variables previously described (Nielsen et al., 2009, Blood Coagul Fibrinolysis, 20: 377-380; Nielsen et al., 2011, Blood Coagul Fibrinolysis, 22: 657-661) were determined, and the results are depicted in FIG. 7 and FIG. 8.

With `[C-]#[O+].[C-]#[O+].[C-]#[O+].[C-]#[O+].[C-]#[O+].[C-]#[O+].[Cl][Ru][Cl].[Cl][Ru][Cl]` [CORM-2, tricarbonyldichlororuthenium (II) dimer] the “elastic modulus (G), concentration-response” value ([1]; 0-200 μM CORM-2, 5 min, no PHA) was “sigmoidal increase”, the MRTG ([1]; 100 μM CORM-2) was 12.4 ± 1.4 dynes/cm^2/sec and the TMRTG ([1]; 100 μM CORM-2) was 2.46 ± 0.15 min. For the same molecule, the TTG ([1]; 100 μM CORM-2) was 272 ± 21 dynes/cm^2, the “elastic modulus (G)” value ([1]; 100 μM CORM-2 vs unexposed plasma) was “significantly increased” and the “difference in G, 200 μM vs 100 μM CORM-2” value ([1]; no PHA) was 10.1%. For the same molecule, the “elastic modulus (G)” value ([1]; plasma exposed to 30 mM PHA 2 min, then 100, 200 or 400 μM CORM-2 5 min) was “no significant increase”, the “change in clot strength (TTG) compared to normal plasma” value [2] was “markedly decreased response” and the “change in clot strength (TTG)” value ([2]; normal pooled plasma, 100 μM CORM-2) was “typical increase”.
`ONc1ccccc1` [PHA, phenylhydroxylamine] was tested, and the “elastic modulus (G)” value ([1]; PHA 10 mM 2 min prior to 100 μM CORM-2) was “significantly smaller than plasma not exposed to either compound”, the MRTG ([1]; PHA 10 mM alone) was 3.6 ± 0.9 dynes/cm^2/sec and the TMRTG ([1]; PHA 10 mM alone) was 3.59 ± 0.60 min. For the same molecule, the TTG ([1]; PHA 10 mM alone) was 99 ± 11 dynes/cm^2, the “elastic modulus (G)” value ([1]; PHA 10 mM alone) was “less than the other three conditions” and the “elastic modulus (G)” value ([1]; PHA 30 mM added 5 min after 100 μM CORM-2) was “not different from plasma not exposed to either compound”. The MRTG ([1]; PHA 30 mM alone) was 3.9 ± 0.8 dynes/cm^2/sec, the TMRTG ([1]; PHA 30 mM alone) was 3.91 ± 0.70 min and the TTG ([1]; PHA 30 mM alone) was 106 ± 8 dynes/cm^2. The “elastic modulus (G)” value ([1]; PHA 30 mM alone) was “significantly less than the other three conditions”, the “elastic modulus (G), reduction of CORM-2 mediated increase” value ([1]; PHA 1 or 5 mM 2 min prior to 100 μM CORM-2) was “little effect” and the “elastic modulus (G)” value ([1]; PHA 10 or 20 mM added 5 min after 100 μM CORM-2) was “negligible effects”. The “change in clot strength (TTG) compared to normal plasma” value [2] was “greater decrease”.
